{
  "source": "patent US20190134120A1",
  "about": "“METHODS FOR THE TREATMENT OF BLADDER CANCER” (Viralytics Limited, priority 2013, published 2019)",
  "key": {"5637 cells": {"test_system": "5637 cells", "assay": "Synergy between CVA21 and radiotherapy, 5637 cells", "format": "cell-based, Human", "details": "5637 cells irradiated (4-10 Gy)", "method": "(§1) Combining CVA21 with the radiotherapy has shown exceptional synergy. When 5637 cells were irradiated (4-10 Gy) then 24 hours later exposed to CVA21 (multiplicities of infection 0.961-12.6), clear synergy was seen (FIG. 3a). […] A comprehensive experimental and analytic method was implemented for this work which allows calculation of combination index values at all data points, and therefore identification of areas of high synergy across the whole response surface (Greco et al. 1995) (FIGS. 3b, 3c).\n(§2) In brief, T24/5637 cells were plated at 0.25×10^4/0.5×10^4 cells per well (100 μL) of a 96 well tray and incubated at 37° C. for 24 hrs. Day 2—An extra 100 ul 10% FCS, media was added to the cells. Then they were treated with Rad (Gy 0, 4, 6, 8, 10) on a clinical Varian linear accelerator in St Luke's Cancer Centre, Royal Surrey Hospital UK. Day 2—The plates were returned to the lab and incubated at 37° C. for 24 hrs. Day 3—The medium was removed and 100 ul of CVA21 (MOI 12.5-0.1 in 2% FCS medium) was added and incubated at 37° C. for 72 hrs. Day 6—The medium was removed and 100 μl of fresh 10% FCS medium added and incubated for 24 hrs. Day 7—The medium was removed and 100 μl of diluted MTS reagent (Promega) was added. The plates were then incubated for 1-2 hr and read absorbance at 492 nm. […]"}, "[1]": {"test_system": "Patient derived bladder tumour cell line", "assay": "Infection of patient derived primary bladder tumour cells with CVA21", "format": "cell-based, Human", "details": "varying MOIs; 72 hours; MTS", "method": "Human cancer bladder tissue was disaggregated and primary tumour cells were isolated. These were tested for bladder tumour markers (Cytokeratin 7) (data not shown). Primary tumour cells were infected at varying MOIs and incubated at 37 C for 72 hours then photographed and analysed by MTS ([3-(4,5-dimethylthiazol-2-yl)-5-(3-carboxymethoxyphenyl)-2-(4-sulfophenyl)-2H-tetrazolium, inner salt) assay. (A) CVA21 MOI 3. (B) Uninfected cells. (C) MTS assay. (D) CVA21 (3×10^6 TCID50) was incubated at 37 C for one hour in healthy donor urine. Resulting virus was titrated by TCID50 on SK-MEL-28 cells for 5 days."}, "[2]": {"test_system": "late stage melanoma patients", "details": "Phase II, intralesional treatment, cited from earlier work"}, "bladder cell line T24": {"test_system": "bladder cell line T24", "assay": "Synergy between MMC and CVA21, dose matrix, T24 cells", "format": "cell-based, Human", "details": "CVA21 (0-50 TCID50/cell) with MMC (0-3.36 ug/ml), at low mitomycin concentrations, especially below 0.2 ug/ml", "method": "(§3) In brief, 5637/T24/TCCSUP-1 cells were plated at 1×10^4 cells per well (100 μL) of a 96 well tray and incubated at 37° C. for 24 hrs. Mitomycin C was diluted in 10% FCS medium in doubling dilutions from between 2.8 to 0.02 ug/ml for 5637 cells and between 3.36 to 0.03 ug/ml for T24 cells. CVA21 was then diluted between MOI 25-0.196 in doubling dilutions using each dilution of Mitomycin C. The cells were then treated with each dilution of CVA21/Mitomycin C and incubated for 72 hrs. The medium was removed and 100 μl of diluted MTS reagent (Promega) was added. The plates were then incubated for 1-4 hrs and absorbance read at 492 nm."}, "KU19-19 cells": {"test_system": "KU19-19 cells", "assay": "CVA21 cytotoxicity, KU19-19 cells", "format": "cell-based, Human", "details": "FIG. 2b"}, "VMCUB-1 cells": {"test_system": "VMCUB-1 cells", "assay": "CVA21 cytotoxicity, VMCUB-1 cells", "format": "cell-based, Human", "details": "FIG. 2b"}, "T24 cells": {"test_system": "T24 cells", "assay": "Synergy between CVA21 and radiotherapy, T24 cells", "format": "cell-based, Human", "method": "as §1, §2"}, "[3]": {"test_system": "bladder cancer cell line 5637", "assay": "Synergy between CVA21 and MMC, dose matrix, 5637 cells", "format": "cell-based, Human", "details": "MMC 0 to 2.8 ug/ml", "method": "as §3"}, "[4]": {"test_system": "human bladder tumor tissue", "assay": "Ex vivo infection of human bladder tumour tissue by CVA21 (immunostaining)", "details": "3.875x10^6 TCID50 CVA21; 48 hours post infection", "method": "Primary bladder cancer tissue was received from the operating theatre of the Royal Surrey County Hospital UK in a dry pot. The tissue was cut into small pieces of between 2-4 mm and placed in 0.5 ml 10% FCS/DMEM with Pen/Strep and GLUT containing 3.875×10^6 TCID50 of CVA21. The infected tissue was incubated at 37° C., 5% CO2 for 48 hrs. Tissue was then fixed in 10% neutral buffered formalin for 18-24 hours.\nTissue pieces originating from the same human bladder tumour were either infected with CVA21 or left uninfected. Immunofluorescence and immunostaining for coxsackievirus was performed 48 hours post infection.\nIn brief, bladder cancer tissue was fixed using 10% neutral buffered formalin for 18-24 hours. After fixation, the tissue block was embedded in paraffin, and 4 μm sections cut and affixed onto slides. The sections were dried overnight at 37° C., deparaffinized, and rehydrated. Endogenous peroxidase was blocked using methanol/0.3% H202 for 20 min. The sections were then subjected to heat mediated antigen retrieval in a microwave using citrate buffer (10 mM, pH 6.0). Following washing, the slides were blocked with 2.5% horse serum and endogenous biotin blocked using an Avidin/Biotin blocking kit (SP-2001, VectorLabs) according to the manufacturer's instructions. […]"}},
  "data": [
    {"substance": "Coxsackievirus A21 [CVA21]", "values": [
      {"measurement": "interaction of CVA21 with radiation", "setting": "5637 cells; 24 hours later CVA21", "result": "clear synergy"},
      {"measurement": "combination indices, minima", "setting": "5637 cells; 24 hours later exposed to CVA21 (MOI 0.961-12.6), dose matrix analysis", "result": "approximately 0.4"},
      {"measurement": "infectability of primary tumour cells", "setting": "[1]", "result": "highly infectable"},
      {"measurement": "tolerability", "setting": "[2]", "result": "generally being well-tolerated"},
      {"measurement": "clinical activity", "setting": "[2]; late stage melanoma", "result": "activity in both injected lesions and non-injected distant lesions"},
      {"measurement": "CI values", "setting": "bladder cell line T24", "result": "< 1"},
      {"measurement": "susceptibility of cell line to CVA21", "setting": "KU19-19 cells", "result": "resistant"},
      {"measurement": "susceptibility of cell line to CVA21", "setting": "VMCUB-1 cells", "result": "resistant"},
      {"measurement": "interaction of CVA21 with radiation", "setting": "T24 cells", "result": "Synergy between radiation and CVA21 was confirmed"},
      {"measurement": "interaction of CVA21 with MMC", "setting": "[3]", "result": "Synergy"},
      {"measurement": "infectability of ex-vivo tumour tissue", "setting": "[4]", "result": "highly infectable"}
    ]}
  ]
}
